According to PMC8589628, “Characterization and Antimicrobial Studies of Iturin-Like and Bogorol-Like Lipopeptides From Brevibacillus spp. Strains GI9 and SKDU10” (Frontiers in Microbiology, 2021):
Values after ≈ are worked out from the molar mass of the structure shown. One block for each compound: values may come before it.

Assays:
[1] = tested on: A. brassicicola MTCC 2102; test: MIC against phytopathogenic fungi, 96-well microtiter plate method; type: cell-based, Alternaria brassicicola; design: key to MIC value: R = resistant
Description: (§1) The antimicrobial activity of HPLC purified compounds was determined against various test strains including S. aureus MTCC 1430, Vibrio cholera MTCC 3904, Bacillus subtilis MTCC 121, Listeria monocytogenes MTCC 839, C. albicans MTCC 183, C. albicans MTCC 1637, C. albicans MTCC 227, C. tropicalis MTCC 184, C. glabrata MTCC 3019, and C. inconspicua MTCC 1074. Antimicrobial activity was also tested against clinical Candida strains and phytopathogenic fungi viz. Fusarium moniliforme MTCC 158, Alternaria brassicicola MTCC 2102 and Colletotrichum acutatum MTCC 1037. Bacterial and Candida test strains were grown in NB and yeast malt broth (YMB), respectively. Fungal test strains were grown in potato dextrose broth (PDB). Minimum inhibitory concentrations (MICs) of purified compounds were evaluated against test organisms by using a microtiter plate dilution assay. Mid-log-phase test strains (5 × 10^5 CFU/ml) were incubated in a 96-well plate with different concentrations of the lipopeptides for 24–48 h at 37°C (final volume of 200 μl). OD was measured at 600 nm after 24 and 48 h for bacteria and yeast, respectively, using an ELISA microplate reader (Thermo Scientific, United States). MIC against phytopathogenic fungi was determined using the 96-well microtiter plate method ([Sharma et al., 2020]).

[2] = tested on: C. acutatum MTCC1037; test: as above; type: cell-based, Colletotrichum acutatum; design: key: R = resistant; details: PDB
Description: as §1

[3] = tested on: C. albicans MTCC 227; test: MIC, microtiter plate dilution assay; type: cell-based, Candida albicans; design: key to MIC value: R = resistant; details: 5 × 10^5 CFU/ml, 37°C, OD 600 nm after 48 h
Description: as §1

[4] = tested on: C. albicans MTCC 1637; test: MIC, microtiter plate dilution assay; type: cell-based, Candida albicans; design: key to MIC value: R = resistant; details: 5 × 10^5 CFU/ml, 37°C, OD 600 nm after 48 h
Description: as §1

[5] = tested on: C. parapsilosis 450030; test: MIC, microtiter plate dilution assay, clinical strain; type: cell-based; details: Lodderomyces parapsilosis, YMB, 37°C, OD 600 nm after 48 h
Description: (§2) Brevibacillus sp. strains GI-9 and SKDU10 were known to produce class IId bacteriocins identified as laterosporulins a ([Singh et al., 2012]; [Baindara et al., 2016]). Both strains were grown on nutrient agar (NA, Himedia, India). All test strains used in this study were obtained from Microbial Type Culture Collection and Gene bank (MTCC), Chandigarh, India. Clinical Candida strains were obtained from the National Culture Collection of Pathogenic Fungi (NCCPF), PGIMER, Chandigarh, India, and all strains were grown on recommended media.
as §1

[6] = tested on: C. rugosa 470141; test: as above; type: cell-based; details: Diutina rugosa, YMB, 37°C, OD 600 nm after 48 h
Description: as §2, §1

[7] = tested on: C. krusei 440009; test: as above; type: cell-based; details: Pichia kudriavzevii, YMB, 37°C, OD 600 nm after 48 h
Description: as §2, §1

[8] = tested on: C. haemulonii 470125; test: as above; type: cell-based; design: key to MIC value: R = resistant; details: YMB, 37°C, OD 600 nm after 48 h
Description: as §2, §1

[9] = tested on: C. tropicalis 420024; test: as above; type: cell-based; design: key to MIC value: R = resistant; details: YMB, 37°C, OD 600 nm after 48 h
Description: as §2, §1

[10] = tested on: C. auris 470126; test: as above; type: cell-based; design: key to MIC value: R = resistant; details: YMB, 37°C, OD 600 nm after 48 h
Description: as §2, §1

[11] = tested on: C. kefyr 410004; test: as above; type: cell-based; design: key to MIC value: R = resistant; details: YMB, 37°C, OD 600 nm after 48 h
Description: as §2, §1

[12] = tested on: C. albicans MTCC 183; test: MIC, microtiter plate dilution assay; type: cell-based, Candida albicans; details: Candida albicans, MTCC183, YMB, 5 × 10^5 CFU/ml, 37°C, OD 600 nm after 48 h
Description: as §1

[13] = tested on: C. haemulonii MTCC 2766; test: MIC, microtiter plate dilution assay; type: cell-based; design: key to MIC value: R = resistant; details: 5 × 10^5 CFU/ml, 37°C, OD 600 nm after 48 h
Description: as §1

[14] = tested on: C. tropicalis MTCC 184; test: MIC, microtiter plate dilution assay; type: cell-based; design: key to MIC value: R = resistant; details: 5 × 10^5 CFU/ml, 37°C, OD 600 nm after 48 h
Description: as §1

[15] = tested on: C. glabrata MTCC 3019; test: MIC, microtiter plate dilution assay; type: cell-based; design: key to MIC value: R = resistant; details: 5 × 10^5 CFU/ml, 37°C, OD 600 nm after 48 h
Description: as §1

[16] = tested on: F. moniliforme MTCC 158; test: MIC against phytopathogenic fungi, 96-well microtiter plate method; type: cell-based, Fusarium moniliforme; details: Fusarium verticillioides, MTCC158, PDB
Description: as §1

[17] = tested on: C. inconspicua MTCC 1074; test: MIC, microtiter plate dilution assay; type: cell-based; details: Pichia inconspicua, MTCC1074, YMB, 5 × 10^5 CFU/ml, 37°C, OD 600 nm after 48 h
Description: as §1

[18] = tested on: C. albicans 400054; test: MIC, microtiter plate dilution assay, clinical strain; type: cell-based, Candida albicans; design: key to MIC value: R = resistant; details: YMB, 37°C, OD 600 nm after 48 h
Description: as §2, §1

[19] = tested on: Vigna radiata (Moong) seeds; test: Seed germination-based phytotoxicity assay; details: Vigna radiata seeds soaked in 0.1% solution (positive control), up to 3 days
Description: For hemolysis assay rabbit erythrocytes were treated with different concentrations of purified active antimicrobial compounds ranging from 250 to 750 μg/ml and incubated at 37°C for 24 h in a 5% CO2 incubator. The release of hemoglobin was monitored by measuring the absorbance at 540 nm in a microplate reader. PBS and 0.1% Triton X-100 were used as controls for 0 and 100% hemolysis, respectively ([Singh et al., 2021]). For phytotoxicity assay, sterilized Vigna radiata (Moong) seeds were treated with different concentrations of purified antimicrobial compounds (250–750 μg/ml). Seeds soaked in water and 0.1% mercuric chloride were used as negative and positive control, respectively. Seeds germination was observed up to 3 days of incubation.

MIC ([1]; Alternaria brassicicola, MTCC2102, PDB): 50 µg/mL (≈ 54.1 µM) | MIC value [2]: R | MIC ([3]; Candida albicans, MTCC227, YMB): 5 µg/mL (≈ 5.41 µM) | MIC ([4]; Candida albicans, MTCC1637, YMB): 5 µg/mL (≈ 5.41 µM) | MIC [5]: 50 µg/mL (≈ 54.1 µM) | MIC [6]: 5 µg/mL (≈ 5.41 µM) | MIC [7]: 5 µg/mL (≈ 5.41 µM) | MIC ([8]; Candidozyma haemuli): 50 µg/mL (≈ 54.1 µM) | MIC ([9]; Candida tropicalis): 50 µg/mL (≈ 54.1 µM) | MIC ([10]; Candidozyma auris): 5 µg/mL (≈ 5.41 µM) | MIC ([11]; Kluyveromyces marxianus): 50 µg/mL (≈ 54.1 µM) | MIC [12]: 5 µg/mL (≈ 5.41 µM) | MIC ([13]; Candidozyma haemuli, MTCC2766, YMB): 100 µg/mL (≈ 108 µM) | MIC ([14]; Candida tropicalis, MTCC184, YMB): 35 µg/mL (≈ 37.9 µM) | MIC ([15]; Nakaseomyces glabratus, MTCC3019, YMB): 25 µg/mL (≈ 27.1 µM) | MIC [16]: 50 µg/mL (≈ 54.1 µM) | MIC [17]: 10 µg/mL (≈ 10.8 µM) | MIC ([18]; Candida albicans): 5 µg/mL (≈ 5.41 µM)
SMILES: C[C@@H]1[C@H](O)[C@@H](C)/C=C/C=C/C=C/C=C/C=C/C=C/C=C/[C@H](O[C@@H]2O[C@H](C)[C@@H](O)[C@H](N)[C@@H]2O)C[C@@H]2O[C@](O)(C[C@@H](O)C[C@@H](O)[C@H](O)CC[C@@H](O)C[C@@H](O)CC(=O)O[C@H]1C)C[C@H](O)[C@H]2C(=O)O [Amphotericin B]

MIC value ([1]; PDB): R | MIC value [2]: R | MIC value ([3]; YMB): R | MIC value ([4]; YMB): R | MIC [5]: 10 µg/mL (≈ 32.7 µM) | MIC [6]: 5 µg/mL (≈ 16.3 µM) | MIC [7]: 1 µg/mL (≈ 3.27 µM) | MIC value [8]: R | MIC value [9]: R | MIC value [10]: R | MIC value [11]: R | MIC value ([13]; YMB): R | MIC value ([14]; YMB): R | MIC value ([15]; YMB): R | MIC [16]: 10 µg/mL (≈ 32.7 µM) | MIC [17]: 50 µg/mL (≈ 163 µM) | MIC value [18]: R
SMILES: OC(Cn1cncn1)(Cn1cncn1)c1ccc(F)cc1F [Fluconazole]

SMILES: [Cl][Hg][Cl] [mercuric chloride]
Seed germination [19]: No germination
